Patent US20190380978A1, “SOLID ORAL DOSAGE FORMS OF 2R,6R-HYDROXYNORKETAMINE OR DERIVATIVES THEREOF” (priority 2016, published 2019)

How the values were obtained:
dopamine transporter = dopamine transporter (Homo sapiens, UniProt Q01959); experiment: binding to dopamine transporter
Description: (§1) 2R,6R-hydroxynorketamine was investigated for binding to monoamine oxidases A and B, monoamine transporters, as well as a variety of 5HT receptors.

5-HT1A = target: T1, 5-HT1A (Homo sapiens, UniProt P08908); experiment: binding to 5-HT1A receptor
T1 sequence (P08908 1-422): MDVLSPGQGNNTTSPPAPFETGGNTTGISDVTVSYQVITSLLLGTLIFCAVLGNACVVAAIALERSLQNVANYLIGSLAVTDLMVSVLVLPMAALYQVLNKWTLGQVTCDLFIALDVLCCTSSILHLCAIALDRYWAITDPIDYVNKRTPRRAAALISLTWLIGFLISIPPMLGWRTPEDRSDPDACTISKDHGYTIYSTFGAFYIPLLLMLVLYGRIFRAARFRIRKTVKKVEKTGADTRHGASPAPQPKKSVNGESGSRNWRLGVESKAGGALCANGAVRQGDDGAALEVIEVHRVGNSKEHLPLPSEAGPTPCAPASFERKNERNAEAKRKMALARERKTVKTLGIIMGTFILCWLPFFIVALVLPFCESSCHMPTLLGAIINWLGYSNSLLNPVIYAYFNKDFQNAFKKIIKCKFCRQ
Description: as §1

[1] = test system: α-amino-3-hydroxy-5-methyl-4-isoxazolepropionic acid receptor (AMPAR)-mediated currents; experiment: in vitro electrophysiological experiments (fEPSPs)
Procedure: The free (unbound) concentration of 2R,6R-hydroxynorketamine producing pharmacodynamics activity in the brain is estimated to be approximately 10 μM.

CYP3A4 = CYP3A4 (Homo sapiens, UniProt P08684); experiment: CYP inhibition assay, CYP3A4 (substrates midazolam and testosterone); type: in vitro ADME; conditions: for inhibition at 0.4 µM / inhibition at 1 µM / inhibition at 4 µM / inhibition at 10 µM / inhibition at 40 µM / inhibition at 100 µM: human
Description: (§2) Cytochrome P450s (CYPs) are a family of enzymes that play a primary role in the metabolism of a wide variety of drugs. 2R,6R-hydroxynorketamine was investigated for its potential to inhibit the action of 7 key CYP enzymes using an inhibition assay measuring reduction in the formation of metabolites compared to control.

CYP2D6 = CYP2D6 (Homo sapiens, UniProt P10635); experiment: CYP inhibition assay, CYP2D6; type: in vitro ADME
Description: as §2

in vitro = conditions: human
MAO-B = MAO-B (Homo sapiens, UniProt P27338); experiment: binding to monoamine oxidase B
Description: as §1

[2] = test system: cryopreserved hepatocytes; experiment: in vitro hepatocyte stability assay, human; type: in vitro ADME
Procedure: 2R,6R-hydroxynorketamine was investigated using an in vitro hepatocyte stability assay, during which 2R,6R-hydroxynorketamine was incubated with cryopreserved hepatocytes from 3 test species.

CYP2B6 = target: T2, CYP2B6 (Homo sapiens, UniProt P20813); experiment: CYP inhibition assay, CYP2B6; type: in vitro ADME
T2 sequence (P20813 1-491): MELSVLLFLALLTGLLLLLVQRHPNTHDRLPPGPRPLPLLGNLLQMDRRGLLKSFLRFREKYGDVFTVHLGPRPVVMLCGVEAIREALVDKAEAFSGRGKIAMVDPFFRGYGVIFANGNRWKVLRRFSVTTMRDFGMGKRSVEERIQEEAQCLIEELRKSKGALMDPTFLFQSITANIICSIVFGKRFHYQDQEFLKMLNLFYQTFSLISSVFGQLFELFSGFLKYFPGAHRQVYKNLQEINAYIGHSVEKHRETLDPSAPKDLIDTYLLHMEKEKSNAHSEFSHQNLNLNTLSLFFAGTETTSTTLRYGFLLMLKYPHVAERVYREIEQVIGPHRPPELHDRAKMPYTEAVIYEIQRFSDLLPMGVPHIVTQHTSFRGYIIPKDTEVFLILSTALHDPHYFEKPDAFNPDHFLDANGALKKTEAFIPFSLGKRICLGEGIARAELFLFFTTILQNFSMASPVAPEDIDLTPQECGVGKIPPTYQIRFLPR
Description: as §2

[3] = target: norepinephrine transporter (Homo sapiens, UniProt P23975); experiment: binding to norepinephrine transporter
Description: as §1

5-HT2C = target: T3, 5-HT2C (Homo sapiens, UniProt P28335); experiment: binding to 5-HT2C receptor
T3 sequence (P28335 33-458): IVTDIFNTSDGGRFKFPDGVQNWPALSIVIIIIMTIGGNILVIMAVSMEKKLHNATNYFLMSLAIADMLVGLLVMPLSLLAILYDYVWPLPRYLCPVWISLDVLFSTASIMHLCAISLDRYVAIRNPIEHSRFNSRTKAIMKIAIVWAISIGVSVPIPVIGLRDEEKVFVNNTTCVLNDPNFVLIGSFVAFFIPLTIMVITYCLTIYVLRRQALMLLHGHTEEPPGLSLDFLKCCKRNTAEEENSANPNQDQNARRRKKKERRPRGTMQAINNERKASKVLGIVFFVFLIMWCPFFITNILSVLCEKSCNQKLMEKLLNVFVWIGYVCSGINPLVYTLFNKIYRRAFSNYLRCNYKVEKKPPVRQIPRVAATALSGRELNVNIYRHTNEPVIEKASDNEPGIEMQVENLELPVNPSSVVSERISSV
Description: as §1

[4] = probe midazolam, Substrate = midazolam
[5] = probe testosterone, Substrate = testosterone

dopamine transporter, sequence (Q01959 whole entry): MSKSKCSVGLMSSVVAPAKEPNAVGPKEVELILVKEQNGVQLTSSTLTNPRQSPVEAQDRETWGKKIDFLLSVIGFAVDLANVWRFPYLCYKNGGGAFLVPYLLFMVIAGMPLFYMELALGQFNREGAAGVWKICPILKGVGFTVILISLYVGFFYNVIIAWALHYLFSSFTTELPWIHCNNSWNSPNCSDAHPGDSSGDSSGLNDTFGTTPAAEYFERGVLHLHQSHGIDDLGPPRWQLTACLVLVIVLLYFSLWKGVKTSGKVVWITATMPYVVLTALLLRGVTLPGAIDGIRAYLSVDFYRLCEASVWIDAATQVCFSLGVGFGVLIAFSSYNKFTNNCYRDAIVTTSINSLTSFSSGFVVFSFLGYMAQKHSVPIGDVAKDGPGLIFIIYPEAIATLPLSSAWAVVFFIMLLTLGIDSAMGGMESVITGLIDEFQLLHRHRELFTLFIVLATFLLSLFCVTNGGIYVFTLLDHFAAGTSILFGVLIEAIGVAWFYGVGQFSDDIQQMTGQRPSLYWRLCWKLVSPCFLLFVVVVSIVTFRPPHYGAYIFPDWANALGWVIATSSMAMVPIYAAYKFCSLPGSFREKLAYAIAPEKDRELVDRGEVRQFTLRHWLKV
CYP3A4, sequence (P08684 whole entry): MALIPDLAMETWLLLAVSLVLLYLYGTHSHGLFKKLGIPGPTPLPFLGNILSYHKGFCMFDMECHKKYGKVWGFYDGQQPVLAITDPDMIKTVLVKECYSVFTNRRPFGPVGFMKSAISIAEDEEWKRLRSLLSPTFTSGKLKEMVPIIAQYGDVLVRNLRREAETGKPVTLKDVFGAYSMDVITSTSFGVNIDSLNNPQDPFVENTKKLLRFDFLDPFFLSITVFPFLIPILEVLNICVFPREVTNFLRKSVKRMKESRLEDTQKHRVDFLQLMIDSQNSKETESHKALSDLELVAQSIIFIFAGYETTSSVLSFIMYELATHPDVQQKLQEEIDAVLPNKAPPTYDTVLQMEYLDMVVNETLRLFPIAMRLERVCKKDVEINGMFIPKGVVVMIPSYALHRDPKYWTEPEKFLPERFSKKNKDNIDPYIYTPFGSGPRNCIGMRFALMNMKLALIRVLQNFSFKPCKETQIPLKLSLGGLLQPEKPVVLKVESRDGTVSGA
CYP2D6, sequence (P10635 whole entry): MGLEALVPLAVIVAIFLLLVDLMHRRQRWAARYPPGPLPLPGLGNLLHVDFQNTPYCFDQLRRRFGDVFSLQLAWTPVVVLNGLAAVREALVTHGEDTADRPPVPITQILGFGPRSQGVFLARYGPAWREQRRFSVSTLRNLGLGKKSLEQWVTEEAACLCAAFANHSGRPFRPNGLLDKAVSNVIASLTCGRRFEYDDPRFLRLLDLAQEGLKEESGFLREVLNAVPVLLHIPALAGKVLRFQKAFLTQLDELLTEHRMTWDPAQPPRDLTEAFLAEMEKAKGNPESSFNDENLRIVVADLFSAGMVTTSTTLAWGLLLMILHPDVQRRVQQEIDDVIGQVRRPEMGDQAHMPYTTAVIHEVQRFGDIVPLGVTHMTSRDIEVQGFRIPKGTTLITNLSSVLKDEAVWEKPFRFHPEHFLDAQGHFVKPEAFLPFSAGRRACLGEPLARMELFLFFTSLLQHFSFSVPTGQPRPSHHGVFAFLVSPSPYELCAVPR
norepinephrine transporter, sequence (P23975 whole entry, species assumed): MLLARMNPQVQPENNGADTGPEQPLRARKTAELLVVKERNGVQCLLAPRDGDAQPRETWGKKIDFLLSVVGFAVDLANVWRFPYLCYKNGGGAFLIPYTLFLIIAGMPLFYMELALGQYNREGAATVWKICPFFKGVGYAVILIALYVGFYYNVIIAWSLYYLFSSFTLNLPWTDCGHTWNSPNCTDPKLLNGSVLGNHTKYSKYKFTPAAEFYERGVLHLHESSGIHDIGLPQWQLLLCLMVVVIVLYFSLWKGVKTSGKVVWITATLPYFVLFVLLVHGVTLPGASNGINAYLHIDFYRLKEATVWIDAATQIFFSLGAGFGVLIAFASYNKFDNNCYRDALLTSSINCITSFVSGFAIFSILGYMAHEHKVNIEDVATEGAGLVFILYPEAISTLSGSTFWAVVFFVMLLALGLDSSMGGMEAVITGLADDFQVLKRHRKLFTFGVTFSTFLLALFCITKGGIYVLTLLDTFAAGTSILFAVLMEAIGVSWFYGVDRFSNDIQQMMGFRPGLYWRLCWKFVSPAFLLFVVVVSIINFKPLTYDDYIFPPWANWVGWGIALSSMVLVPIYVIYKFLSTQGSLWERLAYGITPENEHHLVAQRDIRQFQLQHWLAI
MAO-B, sequence (P27338 whole entry, species assumed): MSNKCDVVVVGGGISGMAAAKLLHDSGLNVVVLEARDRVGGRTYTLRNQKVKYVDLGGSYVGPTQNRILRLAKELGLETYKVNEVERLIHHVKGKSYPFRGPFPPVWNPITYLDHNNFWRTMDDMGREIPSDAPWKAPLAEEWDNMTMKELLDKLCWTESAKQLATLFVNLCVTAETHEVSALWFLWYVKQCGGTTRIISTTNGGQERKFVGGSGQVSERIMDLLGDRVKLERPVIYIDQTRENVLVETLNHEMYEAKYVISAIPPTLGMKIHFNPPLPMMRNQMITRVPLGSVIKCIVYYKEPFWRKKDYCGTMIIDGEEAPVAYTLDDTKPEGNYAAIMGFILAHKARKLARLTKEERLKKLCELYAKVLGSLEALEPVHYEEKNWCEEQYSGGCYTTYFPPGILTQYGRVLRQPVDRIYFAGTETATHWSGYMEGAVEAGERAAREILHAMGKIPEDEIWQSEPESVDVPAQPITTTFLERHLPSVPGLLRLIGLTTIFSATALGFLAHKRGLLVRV

**Q.** With `N[C@@]1(c2ccccc2Cl)CCC[C@@H](O)C1=O` [2R,6R-hydroxynorketamine] as the compound, how does the “% Inhibition of Control Specific Binding” value (dopamine transporter) read?
**A.** 11%

**Q.** What about the “% of Control Specific Binding” value (dopamine transporter) of the same compound?
**A.** 87.2%

**Q.** And the “activity at dopamine transporters” value (dopamine transporter)?
**A.** nor activity at dopamine transporters

**Q.** What about the “% Inhibition of Control Specific Binding” value (5-HT1A) of the same compound?
**A.** 5%

**Q.** And the “% of Control Specific Binding” value (5-HT1A)?
**A.** 97.9%

**Q.** And the “binding to 5HT1A receptor subtype” value (5-HT1A)?
**A.** does not bind

**Q.** What about the “field excitatory postsynaptic potentials (fEPSPs)” value ([1]; 10 μM, in vitro electrophysiology) of the same compound?
**A.** increase

**Q.** What about the “free (unbound) concentration producing pharmacodynamics activity in the brain” value ([1]; estimated) of the same compound?
**A.** approximately 10 μM

**Q.** And the inhibition at 0.4 µM (CYP3A4; [4])?
**A.** 11.5%

**Q.** And the inhibition at 1 µM (CYP3A4; [4])?
**A.** 8.44%

**Q.** What about the inhibition at 4 µM (CYP3A4; [4]) of the same compound?
**A.** 15.7%

**Q.** And the inhibition at 10 µM (CYP3A4; [4])?
**A.** 25.7%

**Q.** What about the inhibition at 40 µM (CYP3A4; [4]) of the same compound?
**A.** 43.7%

**Q.** And the inhibition at 100 µM (CYP3A4; [4])?
**A.** 57.5%

**Q.** What about the inhibition at 0.4 µM (CYP3A4; [5]) of the same compound?
**A.** 1.62%

**Q.** What about the inhibition at 1 µM (CYP3A4; [5]) of the same compound?
**A.** -0.509%

**Q.** And the inhibition at 4 µM (CYP3A4; [5])?
**A.** 7.04%

**Q.** And the inhibition at 10 µM (CYP3A4; [5])?
**A.** 12.4%

**Q.** What about the inhibition at 40 µM (CYP3A4; [5]) of the same compound?
**A.** 35.2%

**Q.** What about the inhibition at 100 µM (CYP3A4; [5]) of the same compound?
**A.** 53.4%

**Q.** What about the IC50 (CYP3A4; substrate midazolam) of the same compound?
**A.** 69 µM

**Q.** What about the IC50 (CYP3A4; substrate testosterone) of the same compound?
**A.** 81 µM

**Q.** What about the inhibition at 0.4 µM (CYP2D6; 0.4 μM) of the same compound?
**A.** 3.16%

**Q.** What about the inhibition at 1 µM (CYP2D6; 1 μM) of the same compound?
**A.** 6.65%

**Q.** And the inhibition at 4 µM (CYP2D6; 4 μM)?
**A.** 11.5%

**Q.** And the inhibition at 10 µM (CYP2D6; 10 μM)?
**A.** 9.41%

**Q.** And the inhibition at 40 µM (CYP2D6; 40 μM)?
**A.** 11.2%

**Q.** And the inhibition at 100 µM (CYP2D6; 100 μM)?
**A.** 5.73%

**Q.** And the recovery (in vitro; Caco-2, Direction = A2B Mean % Recovery, Caco-2, A2B)?
**A.** 98.9%

**Q.** And the Papp A→B (in vitro; Caco-2, Direction = A2B Mean Papp, Caco-2, A2B, mean, n 2)?
**A.** 45.7 ×10⁻⁶ cm/s

**Q.** What about the Papp A→B (in vitro; Caco-2, Direction = A2B Papp Replicate 1, Caco-2, A2B, replicate 1) of the same compound?
**A.** 49.1 ×10⁻⁶ cm/s

**Q.** And the Papp A→B (in vitro; Caco-2, Direction = A2B Papp Replicate 2, Caco-2, A2B, replicate 2)?
**A.** 42.3 ×10⁻⁶ cm/s

**Q.** And the recovery (in vitro; Caco-2, Direction = B2A Mean % Recovery, Caco-2, B2A)?
**A.** 103%

**Q.** And the Papp B→A (in vitro; Caco-2, Direction = B2A Mean Papp, Caco-2, B2A, mean, n 2)?
**A.** 50.7 ×10⁻⁶ cm/s

**Q.** And the Papp B→A (in vitro; Caco-2, Direction = B2A Papp Replicate 1, Caco-2, B2A, replicate 1)?
**A.** 52.8 ×10⁻⁶ cm/s

**Q.** What about the Papp B→A (in vitro; Caco-2, Direction = B2A Papp Replicate 2, Caco-2, B2A, replicate 2) of the same compound?
**A.** 48.5 ×10⁻⁶ cm/s

**Q.** What about the efflux ratio (in vitro; Caco-2, Efflux Ratio (Mean Papp B2A/Mean Papp A2B), Caco-2, without inhibitor) of the same compound?
**A.** < 2

**Q.** What about the “% Inhibition of Control Specific Binding” value (MAO-B) of the same compound?
**A.** −1%

**Q.** And the “% of Control Specific Binding” value (MAO-B)?
**A.** 100.4%

**Q.** What about the CLint ([2]; Human hepatocytes) of the same compound?
**A.** −1.07 gL/min/10^6 cells

**Q.** And the “hepatic clearance in humans” value ([2]; human hepatocyte stability assay)?
**A.** does not undergo hepatic clearance

**Q.** What about the “inhibition of CYP2B6” value (CYP2B6) of the same compound?
**A.** did not inhibit

**Q.** What about the inhibition at 0.4 µM (CYP2B6; human, 0.4 μM) of the same compound?
**A.** 6.03%

**Q.** What about the inhibition at 1 µM (CYP2B6; human, 1 μM) of the same compound?
**A.** 10.1%

**Q.** What about the inhibition at 4 µM (CYP2B6; human, 4 μM) of the same compound?
**A.** 10.6%

**Q.** What about the inhibition at 10 µM (CYP2B6; human, 10 μM) of the same compound?
**A.** 14.4%

**Q.** What about the inhibition at 40 µM (CYP2B6; human, 40 μM) of the same compound?
**A.** 14.8%

**Q.** And the inhibition at 100 µM (CYP2B6; human, 100 μM)?
**A.** 16.7%

**Q.** And the “% Inhibition of Control Specific Binding” value [3]?
**A.** −16%

**Q.** And the “% of Control Specific Binding” value [3]?
**A.** 117.6%

**Q.** What about the “% Inhibition of Control Specific Binding” value (5-HT2C) of the same compound?
**A.** 10%

**Q.** And the “% of Control Specific Binding” value (5-HT2C)?
**A.** 91.1%

**Q.** And the “binding to 5HT2C receptor subtype” value (5-HT2C)?
**A.** does not bind
